Reference: PMC5717258, “Bioaccumulation of pharmaceuticals and personal care product chemicals in fish exposed to wastewater effluent in an urban wetland” (Scientific Reports, 2017)
Read-outs that look alike come from different tables or passages of the source.

Tests used:
[1] = Plasma bioaccumulation factor (BAFP), goldfish; type: in vivo, goldfish (Carassius auratus); settings: for BAFP, CPM2 goldfish caged: water sample of August 2012
Description: (§1) Bioaccumulation factor (BAFP) was calculated as concentration in fish plasma (ng/g × 1000) divided by concentration in water (ng/L). Two widely used modeling approaches for predicting organic contaminant bioaccumulation were assessed: the BCF-BAF model for whole body BAFs[53] and the fish-plasma concentration calculation of Huggett et al.[35] modified by Berninger et al.[54]. The latter involves estimating an octanol-water partition coefficient (Kow) adjusted for fraction ionized (log D), using the pKa value to adjust log Kow[54] taking into account the pH of CPM waters. Further information on the calculation of log D, blood-water partitioning (PBW), and plasma concentrations (FPC) is given in the SI.

[2] = design: method as in US EPA Chemistry Dashboard; settings: ref US EPA Chemistry Dashboard; cited from earlier work
[3] = cited from earlier work
[4] = cited from earlier work; remark: listed apart in the source
[5] = cited from earlier work; for BAFP: treated WWTP effluent from two Swedish cities
[6] = cited from earlier work; for Salmon (whole body) concentration: Table S7, ref Meador et al. (2016); for whole fish concentration, salmon: ref Meador et al. 18
[7] = cited from earlier work; for Sculpin (whole body) concentration: Table S7, ref Meador et al. (2016); for whole fish concentration, sculpin: ref Meador et al. 18
in vivo = settings: for concentration at 21 days: goldfish (Carassius auratus), in vivo
From the text: Cages were visited weekly, and fish (13/cage) were fed during the visits (20 g/cage). All animal experiments were in accordance with CCAC guidance and approved by the GLLFAS-WSTD Animal Care Committee (Government of Canada). Further details on the caging and preparation of the fish and animal care protocols are provided in Simmons et al.[32]. […] A fourth site, Jordan Harbour (JH), a widening of 20 Mile Creek adjacent to Lake Ontario near Jordan ON, served as a reference site. Mass and fork length were measured and recorded. Plasma collection and storage is described in the SI. Plasma of caged goldfish was divided for proteome, metabolome and PPCP analysis. Due to limited volumes, pooled samples of plasma from 25 individual fish (50 µL/individual) was pooled to yield one sample from at each location for PPCP analysis.
(§2) A total of 20 fish plasma samples from the pooled caged fish (7) and the wild fish (13) along with 12 water samples were selected for analysis. […] A full list of analytes is provided in Supplementary Information. Mass labelled^13C-, or deuterated surrogate internal standards were used for quantification of all analytes via the isotope dilution/surrogate standard quantitation method. Prior to extraction and/or clean-up procedures, aqueous samples were adjusted to pH 2.0, spiked with extraction surrogate standards, then adjusted to pH 4 using tetrasodium ethylenediamine-tetraacetate dihydrate. Plasma samples (2.3–2.5 g) were spiked with extraction surrogate standards, sonicated with 20 mL acetonitrile, then diluted with ultra-pure water to 200 mL. The extracts were cleaned up by solid phase extraction using Oasis HLB cartridges (Waters Ltd. Mississauga ON), filtered, and analyzed by liquid chromatography-electrospray ionization-tandem mass spectrometry (LC/ESI-MS/MS) in positive or negative ionization mode. The analysis of the complete list of analytes (SI Table S1) required a total of five instrumental runs.
(§3) Quality assurance steps included analysis of lab blanks for water and plasma along with matrix recovery spikes. […] Detection limits (DLs) were defined as lowest calibration level adjusted to the maximal sample size or 3 times the signal of the noise in the target channel converted to an equivalent sample, whichever was greater. […] Where analytes were detected in two or more samples of the same species or series of water samples, non-detect values were converted to ½ the DL value for reporting purposes.

[8] = for plasma concentration, CPM-C 01: Cootes carp 01, 2011, male; for plasma concentration, CPM-C 2: Cootes carp 2, Sep 27, 2011, male; for plasma concentration, CPM-C 10: Cootes carp 10, Sep 28, 2011, female; for plasma concentration, CPM-C 20: Cootes carp 20, 2011, male; for plasma concentration, JH-C 54: Jordan Harbour carp 54, Nov 7, 2011, male; for plasma concentration, JH-C 73: Jordan Harbour carp 73, Nov 7, 2011, female; for plasma concentration, JH-C 74: Jordan Harbour carp 74, Nov 7, 2011, male; for plasma concentration, JH-C 75: Jordan Harbour carp 75, Nov 7, 2011, female; for plasma concentration, JH-C 78: Jordan Harbour carp 78, Nov 7, 2011, male; for plasma concentration, JH-C 82: Jordan Harbour carp 82, Nov 7, 2011, female
Description: (§4) Plasma from 9 individual male fish (500 µL/individual) was pooled to yield 3 samples for PPCP analysis. […] Plasma from 6 individual carp (2.3–3.5 g) from each location was selected for PPCP analysis. […] Plasma samples were frozen (−80 °C) until analysis.
as §2, §3

[9] = cited from earlier work; remark: listed apart in the source
[10] = Jordan Harbour brown bullhead, wet weight
Description: as §4, §2

[11] = Plasma bioaccumulation factor (BAFP), carp; type: in vivo, carp (Cyprinus carpio)
Description: as §1

[12] = male, goldfish (Carassius auratus), in vivo
[13] = conc in fish plasma/conc in water
[14] = range based on range of plasma concentrations

For `CN[C@H]1CC[C@@H](c2ccc(Cl)c(Cl)c2)c2ccccc21` [Sertraline], the “BAFP, CPM1 goldfish caged” value [1] is listed as 50 L/kg, the “BAFP, CPM2 goldfish caged” value [1] is listed as 27 L/kg and the “log Kow” value [2] is listed as 5.29. For the same molecule, the “BAFP in carp plasma, median” value [3] was 8.9, the “plasma concentration, crucian carp & common carp” value ([3]; mean ± SD, ref Tanoue et al.16) was 0.21±0.18 ng/g wet weight or ng/mL for plasma and the “Therapeutic "normal" blood-plasma/serum concentration” value ([4]; human, converted from µg/mL, ref Schulz et al.[56]) was 50 to 250 ng/mL. The “toxic dose (toxic blood-plasma/serum concentration)” value ([4]; human, ref Schulz et al.[56]) was 290 ng/mL, the “Cmax (human therapeutic dose)” value ([4]; ref Berninger & Brooks[60]) was 290 ng/mL and the “plasma concentration, rainbow trout” value ([5]; ref Fick et al. 12) was 0.30-2.4 ng/g wet weight or ng/mL for plasma. For the same molecule, the “Salmon (whole body) concentration” value [6] was 17 ng/g, the “whole fish concentration, salmon” value [6] was 17 ng/g wet weight or ng/mL for plasma and the “Sculpin (whole body) concentration” value [7] was 0.2 ng/g. For the same molecule, the “whole fish concentration, sculpin” value [7] was 0.2 ng/g wet weight or ng/mL for plasma.
In the case of `Cc1cc(C)nc(NS(=O)(=O)c2ccc(N)cc2)n1` [Sulfamethazine], the concentration at 21 days (in vivo; caged goldfish plasma, range of concentrations) is reported as 0.06 to 0.17 ng/g, the concentration at 21 days (in vivo; plasma concentration, CPM1 caged) is reported as less than 0.244 ng/g and the concentration at 21 days (in vivo; plasma concentration, CPM2 caged) is reported as less than 0.165 ng/g. For the same molecule, the concentration at 21 days (in vivo; plasma concentration, CPM3 caged) was less than 0.123 ng/g, the concentration at 21 days (in vivo; plasma concentration, JH caged) was less than 0.12 ng/g and the “plasma concentration, carp, this study (mean)” value ([8]; in vivo) was “< mdl”. For the same molecule, the “plasma concentration, CPM wild-01” value [8, 12] was 0.166 ng/g, the “plasma concentration, CPM wild-02” value [8, 12] was 0.084 ng/g and the “plasma concentration, CPM wild-03” value [8, 12] was 0.066 ng/g. For the same molecule, the “plasma concentration, goldfish, this study (mean)” value [8, 12] was 0.11 ng/g wet weight or ng/mL for plasma, the “log BAFP, goldfish and carp in this study” value ([1]; goldfish and carp) was 1.53–2.73 and the “log Kow” value [2] was 0.19. The “plasma concentration, carp and tilapia” value ([9]; ref Zhao et al. 15) was 6.47 ng/g wet weight or ng/mL for plasma and the “log BAFP” value ([9]; tilapia and carp species in southern China) was 1.92–4.18.
With `CC(C)Cc1ccc(C(C)C(=O)O)cc1` (stereo not drawn) [Ibuprofen] the “plasma concentration, CPM-C 01” value ([8]; wet weight) was less than 3.16 ng/g, the “plasma concentration, CPM-C 2” value ([8]; wet weight) was less than 4.31 ng/g and the “plasma concentration, CPM-C 10” value ([8]; wet weight) was less than 4.53 ng/g. The “plasma concentration, CPM-C 20” value ([8]; wet weight) was less than 3.23 ng/g, the “plasma concentration, JH-C 54” value ([8]; wet weight) was less than 3.18 ng/g and the “plasma concentration, JH-C 73” value ([8]; wet weight) was less than 3.09 ng/g. The “plasma concentration, JH-C 74” value ([8]; wet weight) was less than 3.19 ng/g, the “plasma concentration, JH-C 75” value ([8]; wet weight) was less than 4.52 ng/g and the “plasma concentration, JH-C 78” value ([8]; wet weight) was less than 3.13 ng/g. The “plasma concentration, JH-C 82” value ([8]; wet weight) was less than 3.01 ng/g, the “plasma concentration, JH-BB” value [10] was less than 5.7 ng/g and the BAFP [5] was 21–58.
For `CCN(CC)C(=O)c1cccc(C)c1` [DEET, N,N-Diethyl-m-toluamide], the “plasma concentration, CPM1 caged” value (in vivo; CPM1, 07-2014, pooled plasma, wet weight) was 0.416 ng/g, the “plasma concentration, CPM2 caged” value (in vivo; CPM2, 07-2014, pooled plasma, wet weight) was 0.41 ng/g and the “plasma concentration, CPM3 caged” value (in vivo; CPM3, 07-2014, pooled plasma, wet weight) was 0.314 ng/g. For the same molecule, the “caged goldfish plasma, range of concentrations” value (in vivo; Cootes Paradise Marsh, range) was 0.23 to 0.58 ng/g, the “plasma concentration, JH caged” value (in vivo; Jordan Harbour reference site, 07-2014, pooled plasma, wet weight) was 0.235 ng/g and the “Cootes carp plasma, range of concentrations” value ([8]; Cootes Paradise Marsh, range) was 0.19 to 1.15 ng/g. The “wild goldfish plasma, range of concentrations” value ([8]; Cootes Paradise Marsh, range) was 0.31 to 0.42 ng/g, the “plasma concentration, CPM-C 01” value ([8]; wet weight) was 0.194 ng/g and the “plasma concentration, CPM-C 2” value ([8]; wet weight) was 1.09 ng/g. The “plasma concentration, CPM-C 10” value ([8]; wet weight) was 1.15 ng/g, the “plasma concentration, CPM-C 13” value ([8]; Cootes carp 13, Sep 28, 2011, female, wet weight) was 1.1 ng/g and the “plasma concentration, CPM-C 20” value ([8]; wet weight) was 0.35 ng/g. For the same molecule, the “plasma concentration, CPM-C 36” value ([8]; Cootes carp 36, Oct 3, 2011, female, wet weight) was 0.743 ng/g, the “plasma concentration, JH-C 54” value ([8]; wet weight) was 0.331 ng/g and the “plasma concentration, JH-C 73” value ([8]; wet weight) was 0.083 ng/g. For the same molecule, the “plasma concentration, JH-C 74” value ([8]; wet weight) was 0.494 ng/g, the “plasma concentration, JH-C 75” value ([8]; wet weight) was 0.914 ng/g and the “plasma concentration, JH-C 78” value ([8]; wet weight) was 1.09 ng/g. For the same molecule, the “plasma concentration, JH-C 82” value ([8]; wet weight) was 0.865 ng/g, the “plasma concentration, fold higher in carp plasma than in goldfish” value ([8]; Jordan Harbour, carp vs caged goldfish) was “about 2 fold” and the “Carp plasma concentration, this study (range)” value ([8]; Table S7) was 0.19 to 1.15 ng/g. For the same molecule, the “Goldfish plasma concentration, this study (range)” value ([8]; Table S7) was 0.23 to 0.58 ng/g, the “plasma concentration, carp, this study (mean)” value ([8]; Table S8) was 0.77 ng/g wet weight or ng/mL for plasma and the “plasma concentration, goldfish, this study (mean)” value ([8]; Table S8) was 0.46 ng/g wet weight or ng/mL for plasma. The “plasma concentration, CPM wild-01” value ([8]; wild goldfish sample 01, 2012, wet weight) was 0.234 ng/g, the “plasma concentration, CPM wild-02” value ([8]; wild goldfish sample 02, 2012, wet weight) was 0.584 ng/g and the “plasma concentration, CPM wild-03” value ([8]; wild goldfish sample 03, 2012, wet weight) was 0.56 ng/g. For the same molecule, the “plasma concentration, JH-BB” value [10] was 2.59 ng/g, the “BAFP, CPM1 goldfish caged” value [1] was 4 L/kg and the “BAFP, CPM2 goldfish caged” value [1] was 4 L/kg. For the same molecule, the “BAFP, CPM3 goldfish caged” value ([1]; CPM3) was 4 L/kg, the “BAFP, JH goldfish caged” value ([1]; Jordan Harbour) was 9 L/kg and the “BAFP at CPM3, wild goldfish, average” value [1, 13] was 9 L/kg. The “BAFP at CPM3, wild goldfish, range” value [1, 14] was 4 to 11 L/kg, the “BAFP at JH, carp, average” value ([11]; Jordan Harbour) was 32 L/kg and the “BAFP at JH, carp, range” value ([11]; Jordan Harbour) was 4 to 51 L/kg. For the same molecule, the “BAFP at CPM3, carp, average” value [11, 13] was 15 L/kg, the “BAFP at CPM3, carp, range” value [11, 14] was 4 to 22 L/kg and the “log Kow” value [2] was 2.18. The “BAFP in carp plasma, median” value [3] was less than 6.2, the “Salmon (whole body) concentration” value [6] was 0.39 to 1.6 ng/g and the “whole fish concentration, salmon” value [6] was 0.39 - 1.6 ng/g wet weight or ng/mL for plasma. For the same molecule, the “Sculpin (whole body) concentration” value [7] was 0.41 to 2.2 ng/g and the “whole fish concentration, sculpin” value [7] was 0.41 - 2.2 ng/g wet weight or ng/mL for plasma.
In the case of `O=C1Nc2ccc(Cl)cc2C(c2ccccc2)=NC1O` (stereo not drawn) [Oxazepam], the BAFP [5] is listed as 0.7–3.6.
